Laboratory results taken from patent US4084951A, “Silicon compounds containing nucleofugal phosphate group and method of regulating plant growth therewith” (priority 1971, dated 1978).

How the values were obtained:
[1] = Half lives of various silanes in 0.1M aqueous phosphate buffers at pH 7 and 25°; type: physicochemical; details: 0.1M aqueous phosphate buffer, pH 7, 25°
Procedure: Half lives of various silanes in 0.1M aqueous
phosphate buffers at pH 7 and 25°.

[2] = tested on: Hevea brasiliensis seedlings; assay: Average rubber yield of seedlings treated with silane, neat liquid or 12% solution in petroleum jelly; type: in vivo
Procedure: Three Hevea brasiliensis seedlings were treated with 2-chloroethyltrimethoxysilane (2 μ1) applied as a neat liquid. Three similar seedlings were treated with the same weight of compound applied as a 12% solution in petroleum jelly. The following average yields of rubber were obtained (yield in mg of dry rubber, expressed as a percentage of pretreatment yields in parentheses).

[3] = tested on: Hevea brasiliensis trees (Clone Tjirandji 1); assay: Yield of dried rubber from trees treated on scraped bark below the tapping cut; type: in vivo; details: 20% w/w in palm oil, alternate-day half-spiral tapping, mean over two weeks
Procedure: A solution of 20% w/w of diphenyl 2-(trimethylsilyl)ethylphosphate in palm oil was applied to 11/2 inch wide strip of scraped bark just below the tapping cut of Hevea brasiliensis trees (Clone Tjirandji 1). The trees were tapped on alternate days using a half-spiral tapping cut. The yield of dried rubber obtained over a four-week period was measured. The mean yields over two weeks, expressed as grams of dry rubber per tree per tapping was 45.5 (194% of control).

[4] = 12% solution in petroleum jelly, 3 days after treatment
[5] = 12% solution in petroleum jelly, 7 days after treatment
[6] = 12% solution in petroleum jelly, 12 days after treatment
[7] = 12% solution in petroleum jelly, 16 days after treatment
[8] = 12% solution in petroleum jelly, 24 days after treatment
[9] = 12% solution in petroleum jelly, 30 days after treatment
[10] = 12% solution in petroleum jelly, 34 days after treatment
[11] = 12% solution in petroleum jelly, 42 days after treatment
[12] = neat liquid (2 μl), 3 days after treatment
[13] = neat liquid (2 μl), 7 days after treatment
[14] = neat liquid (2 μl), 12 days after treatment
[15] = neat liquid (2 μl), 16 days after treatment
[16] = neat liquid (2 μl), 24 days after treatment
[17] = neat liquid (2 μl), 30 days after treatment
[18] = neat liquid (2 μl), 34 days after treatment
[19] = neat liquid (2 μl), 42 days after treatment

CC(C)O[Si](CCCl)(OC(C)C)OC(C)C [2-chloroethyltriisopropoxysilane]
half-life [1]: 504 h

CO[Si](CCCl)(OC)OC [2-chloroethyltrimethoxysilane]
half-life [1]: 0.333 h | average yield of dry rubber [2, 4]: 2.2 mg | yield as a percentage of pretreatment yields [2, 4]: 160% | average yield of dry rubber [2, 5]: 2.3 mg | yield as a percentage of pretreatment yields [2, 5]: 164% | average yield of dry rubber [2, 6]: 2.3 mg | yield as a percentage of pretreatment yields [2, 6]: 164% | average yield of dry rubber [2, 7]: 3.0 mg | yield as a percentage of pretreatment yields [2, 7]: 215% | average yield of dry rubber [2, 8]: 2.2 mg | yield as a percentage of pretreatment yields [2, 8]: 160% | average yield of dry rubber [2, 9]: 2.3 mg | yield as a percentage of pretreatment yields [2, 9]: 164% | average yield of dry rubber [2, 10]: 1.8 mg | yield as a percentage of pretreatment yields [2, 10]: 128% | average yield of dry rubber [2, 11]: 0.9 mg | yield as a percentage of pretreatment yields [2, 11]: 65% | average yield of dry rubber [2, 12]: 2.1 mg | yield as a percentage of pretreatment yields [2, 12]: 230% | average yield of dry rubber [2, 13]: 2.2 mg | yield as a percentage of pretreatment yields [2, 13]: 245% | average yield of dry rubber [2, 14]: 1.3 mg | yield as a percentage of pretreatment yields [2, 14]: 145% | average yield of dry rubber [2, 15]: 1.1 mg | yield as a percentage of pretreatment yields [2, 15]: 122% | average yield of dry rubber [2, 16]: 0.9 mg | yield as a percentage of pretreatment yields [2, 16]: 100% | average yield of dry rubber [2, 17]: 0.8 mg | yield as a percentage of pretreatment yields [2, 17]: 90% | average yield of dry rubber [2, 18]: 1.2 mg | yield as a percentage of pretreatment yields [2, 18]: 134% | average yield of dry rubber [2, 19]: 1.0 mg | yield as a percentage of pretreatment yields [2, 19]: 112%

C[Si](C)(C)CCCl [2-chloroethyltrimethylsilane]
half-life [1]: < 0.0167 h

C[Si](C)(C)CCOP(=O)(Oc1ccccc1)Oc1ccccc1 [diphenyl 2-(trimethylsilyl)-ethyl phosphate]
mean yield of dry rubber per tree per tapping [3]: 45.5 grams of dry rubber per tree per tapping | mean yield relative to control [3]: 194 % of control

CC[S+](C)CC[Si](OC)(OC)OC.[I-] (centres unmarked) [ethyl methyl 2-(trimethoxysilyl)-ethyl sulphonium iodide]
half-life [1]: 14 h
